{"source": "patent US10669240B2", "about": "“5-substituted indazole-3-carboxamides and preparation and use thereof” (Samumed, LLC, priority 2014, dated 2020)", "type_in_all_cases": "cell-based", "key": {"[1]": {"test_system": "Wnt activity (Wnt-responsive SP5 promoter luciferase reporter in SW480 cells)", "assay": "Wnt activity reporter assay: SW480 cells with SP5 promoter-driven firefly luciferase", "settings": "Homo sapiens, 24 h after compound addition, read-out: Wnt inhibition", "outline": "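SW480 cells (APC-mutant colon line) stably carrying a lentiviral SP5-promoter (eight TCF/LEF sites) firefly luciferase reporter were plated at ~10,000 cells/well. Luminescence was normalized to DMSO-only cells and used for IC50.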"}, "DYRK1A": {"biological_target": "DYRK1A (Homo sapiens (Human), UniProt Q13627)", "assay": "DYRK1A activity Tau assay: pSer396 Tau in SH-SY5Y cells by ELISA / western blot", "settings": "overnight (16-18 h) exposure"}, "[2]": {"test_system": "primary human mesenchymal stem cells (hMSCs)", "assay": "Chondrogenesis assay in primary human mesenchymal stem cells, nodule count vs TGF-β3 positive control", "settings": "6 days; for Conc (nM) of Max. activity: 6-point dose-response 2700 nM to 10 nM, dose at which maximum chondrogenesis activity was reached; for Conc (nM) of 100% TGF-β3 activity: concentration required to induce chondrogenesis equivalent to TGF-β3 (10 ng/mL); for Max. Activity as % TGF-β3 activity: relative to TGF-β3 (10 ng/mL) positive control", "excerpt": "The above synthesized compounds were screened using primary human mesenchymal stem cells (hMSCs) to determine their ability to induce chondrogenesis (process by which cartilage is developed).\nHuman Mesenchymal Stem Cell Culture:\nPrimary human mesenchymal stem cells (hMSCs) were purchased from Lonza (Walkersville, Md.) and expanded in Mesenchymal Stem Cell Growth Media (Lonza). Cells between passage 3 and 6 were used for the experiments.\nNumber of nodules in each well was normalized to the average of 3 DMSO treated wells on the same plate using Excel (Microsoft Inc.). The normalized averages (fold change over DMSO) of 3 replicate wells for each compound concentration were calculated. Due to solubility limitations of some of the compounds, curve fitting was incomplete leading to inaccurate EC50 determinations.\nUsing TGF-β3 as a positive control, the concentration of test compounds required to induce equivalent levels of chondrogenesis is reported. In addition, the maximum activity of each compound and the respective dose that each compound reached maximum chondrogenesis activity is reported."}, "[3]": {"test_system": "primary human fibroblasts derived from IPF patients (LL29 cells)", "assay": "Inhibition of the fibrotic process: αSMA staining in TGF-β1 treated LL29 fibroblasts", "settings": "Fibroblast, 72 h, TGF-β1 10 ng/ml, 3 days, read-out: Inhibition of fibrosis IC50", "protocol": "The above synthesized compounds were screened using primary human fibroblasts (derived from IPF patients) treated with TGF-β1 to determine their ability to inhibit the fibrotic process.\nEach compound was dissolved in DMSO as a 10 mM stock and used to prepare compound source plates. […] LL29 cells were plated at 1,000 cells/well in 50 μl/well serum free F12 medium. […] Wells untreated with TGF-β1 were used as control for normalization and calculating IC50 values. Cells were incubated at 37° C. and 5% CO2 for 3 days. Cells were fixed using 4% formaldehyde (Electron Microscopy Sciences), washed 3 times with PBS followed by blocking and permeabilization using 3% Bovine Serum Albumin (BSA; Sigma) and 0.3% Triton X-100 (Sigma) in PBS. […] The IC50 values are reported."}}, "note": "pEC50, pIC50: −log10 of the molar value.", "data": [{"smiles": "Cc1ccc(NC(=O)c2n[nH]c3ccc(-c4cncc(CN5CCCCC5)c4)cc23)cn1", "note": "[Compound 65, N-(6-Methylpyridin-3-yl)-5-(5-(piperidin-1-ylmethyl)pyridin-3-yl)-1H-indazole-3-carboxamide]", "values": [{"measurement": "pIC50", "setting": "[1]", "value": 7.24}, {"measurement": "pEC50", "setting": "DYRK1A", "value": 9.00}, {"measurement": "Conc (nM) of Max. activity", "setting": "[2]", "value": 900, "unit": "nM"}, {"measurement": "Conc (nM) of 100% TGF-β3 activity", "setting": "[2]", "value": 900, "unit": "nM"}, {"measurement": "Max. Activity as % TGF-β3 activity", "setting": "[2]", "value": 117, "unit": "%"}, {"measurement": "pIC50", "setting": "[3]", "value": 6.76}]}, {"smiles": "O=C(Nc1ccnc(C(F)(F)F)c1)c1n[nH]c2ccc(-c3cncc(CN4CCCCC4)c3)cc12", "note": "[Compound 80, 5-(5-(Piperidin-1-ylmethyl)pyridin-3-yl)-N-(2-(trifluoromethyl)pyridin-4-yl)-1H-indazole-3-carboxamide]", "values": [{"measurement": "pIC50", "setting": "[1]", "value": 7.44}, {"measurement": "pEC50", "setting": "DYRK1A", "value": 7.44}, {"measurement": "Conc (nM) of Max. activity", "setting": "[2]", "value": 900, "unit": "nM"}, {"measurement": "Max. Activity as % TGF-β3 activity", "setting": "[2]", "value": 20, "unit": "%"}, {"measurement": "pIC50", "setting": "[3]", "value": 6.52}]}, {"smiles": "CN1CCN(c2ccc(NC(=O)c3n[nH]c4ccc(-c5cncc(NC(=O)c6cc(F)ccc6F)c5)cc34)cn2)CC1", "note": "[Compound 48, 5-(5-(2,5-Difluorobenzamido)pyridin-3-yl)-N-(6-(4-methylpiperazin-1-yl)pyridin-3-yl)-1H-indazole-3-carboxamide]", "values": [{"measurement": "pIC50", "setting": "[1]", "value": 7.51}, {"measurement": "pEC50", "setting": "DYRK1A", "value": 8.70}, {"measurement": "Conc (nM) of Max. activity", "setting": "[2]", "value": 2700, "unit": "nM"}, {"measurement": "Conc (nM) of 100% TGF-β3 activity", "setting": "[2]", "value": 2700, "unit": "nM"}, {"measurement": "Max. Activity as % TGF-β3 activity", "setting": "[2]", "value": 237, "unit": "%"}, {"measurement": "pIC50", "setting": "[3]", "value": 7.17}]}, {"smiles": "Cc1cncc(NC(=O)c2n[nH]c3ccc(-c4cncc(CN5CCCCC5)c4)cc23)c1", "note": "[Compound 64, N-(5-Methylpyridin-3-yl)-5-(5-(piperidin-1-ylmethyl)pyridin-3-yl)-1H-indazole-3-carboxamide]", "values": [{"measurement": "pIC50", "setting": "[1]", "value": 7.23}, {"measurement": "pEC50", "setting": "DYRK1A", "value": 8.70}, {"measurement": "Conc (nM) of Max. activity", "setting": "[2]", "value": 2700, "unit": "nM"}, {"measurement": "Max. Activity as % TGF-β3 activity", "setting": "[2]", "value": 83, "unit": "%"}, {"measurement": "pIC50", "setting": "[3]", "value": 6.58}]}, {"smiles": "CC(C)CC(=O)Nc1ccncc1NC(=O)c1n[nH]c2ccc(-c3cncc(CN4CCCCC4)c3)cc12", "note": "[Compound 73, N-(4-(3-Methylbutanamido)pyridin-3-yl)-5-(5-(piperidin-1-ylmethyl)pyridin-3-yl)-1H-indazole-3-carboxamide]", "values": [{"measurement": "pIC50", "setting": "[1]", "value": 7.60}, {"measurement": "pEC50", "setting": "DYRK1A", "value": 7.24}, {"measurement": "Conc (nM) of Max. activity", "setting": "[2]", "value": 900, "unit": "nM"}, {"measurement": "Max. Activity as % TGF-β3 activity", "setting": "[2]", "value": 65, "unit": "%"}, {"measurement": "pIC50", "setting": "[3]", "value": 5.73}]}, {"smiles": "COc1ccc(NC(=O)c2n[nH]c3ccc(-c4cncc(CN5CCCC5)c4)cc23)cn1", "note": "[Compound 53, N-(6-Methoxypyridin-3-yl)-5-(5-(pyrrolidin-1-ylmethyl)pyridin-3-yl)-1H-indazole-3-carboxamide]", "values": [{"measurement": "pIC50", "setting": "[1]", "value": 7.30}, {"measurement": "pEC50", "setting": "DYRK1A", "value": 8.70}, {"measurement": "Conc (nM) of Max. activity", "setting": "[2]", "value": 2700, "unit": "nM"}, {"measurement": "Max. Activity as % TGF-β3 activity", "setting": "[2]", "value": 86, "unit": "%"}, {"measurement": "pIC50", "setting": "[3]", "value": 6.64}]}]}
